Test results: patent publication US20240294551A1 (AMGEN INC., priority 2022, published 2024)
Where a name gives a salt, the structure may show the parent alone. Read-outs that look alike come from different tables or passages of the source.

Tests used:
[1] = test system: Phosphorylation of ERK1/2 in AsPC-1 cells; test: Phospho-ERK1/2 MSD Assay; format: cell-based, human; settings: Homo sapiens, ASPC1, 2 h
Outline: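 Read-out: MSD electrochemiluminescent detection of phosphorylated ERK1/2 in whole-cell lysates, fitted to a 4-parameter logistic curve for IC50. Prior to lysis, AsPC-1 cells (25,000 per well) received a 2 h compound dose-response at 37 °C.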

[2] = target: GDP-bound KRAS protein (aa 1-169), containing both G12D and C118A amino acid substitutions (Homo sapiens (Human), UniProt P01116, C118A/G12D); test: KRAS G12D Coupled Nucleotide Exchange Assay; format: biochemical
SW620 cells = test: SW620 CTG Assay (CellTiter-Glo cell viability); format: cell-based, human; settings: Homo sapiens, SW-620; SW620, 72 h; third value of the cell; read-out: G12D/C/V Cell Proliferation CTG (72 h) SW620
Method: AsPC-1 and SW620 CTG Assay Protocols
AsPC-1 (human pancreatic adenocarcinoma; ATCC CRL-1682) or SW620 (human colon adenocarcinoma; ATCC CCL-227) cells were cultured in RPMI 1640 medium containing 10% fetal bovine serum and 1× penicillin/streptomycin/L-glutamine. Cells were seeded in 384-well plates at a density of 3.33E+04 cells/mL and incubated at 37° C., 5% CO2, overnight. Serially-diluted compound or DMSO was added to the cells, and plates were incubated at 37° C., 5% CO2 for 72 h. Cell viability was measured using a CellTiter-Glo® Luminescent Cell Viability Assay kit (Promega) according to the manufacturer's protocol. The luminescence signal of treated samples was normalized to DMSO control, and data were analyzed using a 4-parameter logistic model to calculate IC50 values.

[3] = target: His-tagged KRAS G12D protein (Homo sapiens (Human), UniProt P01116, G12D); test: KRAS G12D TR-FRET Assay; format: binding
Outline: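 His-tagged KRAS G12D (diluted to 20 nM in pH 7.4 HEPES buffer with 10 mM MgCl2 and 10 μM GDP) was preincubated with titrated compound for 30 min at room temperature. Biotinylated KRPep-2d peptide (diluted to 20 nM) was then added for 1 h, and displacement was monitored by TR-FRET.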

AsPC-1 cells = test: AsPC-1 CTG Assay (CellTiter-Glo cell viability); format: cell-based, human; settings: Homo sapiens, ASPC1, 72 h, first value of the cell, read-out: G12D/C/V Cell Proliferation CTG (72 h) AsPC-1
Outline: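 Human pancreatic AsPC-1 or colon SW620 cells in RPMI 1640 with 10% FBS, seeded overnight, then exposed to serially diluted compound for 72 h at 37 °C. CellTiter-Glo luminescence normalized to DMSO control; IC50 from a 4-parameter logistic model.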

MIA PaCa-2 cells = test: MIA PaCa-2 CTG Assay (CellTiter-Glo cell viability); format: cell-based, human; settings: Homo sapiens, second value of the cell
Outline: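 Human pancreatic carcinoma cells in RPMI 1640 with 10% FBS, seeded at 1.67E+04 cells/mL and left overnight, were treated with serially diluted compound for 72 h at 37° C, 5% CO2. Viability was read by CellTiter-Glo luminescence normalized to DMSO; IC50 came from a 4-parameter logistic fit.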

[4] = read-out: 2 h p-ERK (AsPC-1 cells), IC50
[5] = read-out: KRAS G12D Coupled Exchange IC50
[6] = read-out: KRAS G12D Binding IC50
[7] = Mia PaCa-2, 72 h, read-out: G12D/C/V Cell Proliferation CTG (72 h) Mia PaCa-2
[8] = read-out: 2 h p-ERK (AsPC-1 cells)
[9] = 2 hours compound pre-incubation, read-out: KRAS G12D Coupled Exchange
[10] = MIA PaCa-2 cells (G12C), 72 h, read-out: G12D/C/V Cell Proliferation CTG (72 h) MIA PaCa-2
[11] = TR-FRET, read-out: KRAS G12D Binding

Sequence of His-tagged KRAS G12D protein (P01116 other isoform, or with tags, fused parts or gaps G12D): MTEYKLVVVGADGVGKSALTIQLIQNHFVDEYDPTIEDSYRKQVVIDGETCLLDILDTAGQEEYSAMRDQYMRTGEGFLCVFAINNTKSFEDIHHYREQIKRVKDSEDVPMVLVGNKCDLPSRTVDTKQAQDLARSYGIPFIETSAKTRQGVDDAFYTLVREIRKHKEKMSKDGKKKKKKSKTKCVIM
Sequence of GDP-bound KRAS protein (aa 1-169), containing both G12D and C118A amino acid substitutions (P01116 other isoform, or with tags, fused parts or gaps G12D/C118A): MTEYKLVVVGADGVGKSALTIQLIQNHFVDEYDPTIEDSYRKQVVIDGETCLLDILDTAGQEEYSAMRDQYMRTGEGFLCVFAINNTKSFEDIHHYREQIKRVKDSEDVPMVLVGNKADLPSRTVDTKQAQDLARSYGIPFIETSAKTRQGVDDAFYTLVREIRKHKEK

SMILES	IC50 [1, 4]	IC50 [2, 5]	IC50 (SW620 cells)	IC50 [3, 6]	IC50 (AsPC-1 cells; AsPC-1, 72 h)	IC50 (MIA PaCa-2 cells; [7])	IC50 (AsPC-1 cells; AsPC-1 cells (G12D), 72 h)	IC50 [1, 8]	IC50 [2, 9]	IC50 (MIA PaCa-2 cells; [10])	IC50 [3, 11]
C[C@@]12CCCN(C1)c1nc(OC[C@@]34CCCN3C[C@H](F)C4)nc3c(F)c(ncc13)-c1cc(O)cc3cccc(c13)CCCCC(=O)N2 [Example 8, (15R)-32-Fluoro-8-(((2R,7aS)-2-fluorotetrahydro-1H-pyrrolo[1,2-a]pyrrol-7a(5H)-yl)methoxy)-28-hydroxy-15-methyl-3,7,9,11,16-pentaazahexacyclo[20.7.1.1˜2,6˜.1˜11,15˜.0˜5,10˜.0˜26,30˜]dotriaconta-1(29),2(32),3,5,7,9,22,24,26(30),27-decaen-17-one (2,2,2-trifluoroacetate) salt]	60 nM	6 nM	579 nM	8 nM							
Cc1cc2[nH]ncc2c2c1CCCOC(=O)O[C@@H]1COCCN(C1)c1nc(OC[C@@]34CCCN3C[C@H](F)C4)nc3c(F)c-2c(F)cc13 [Example 102, (26S)-9,32-difluoro-4-(((2R,7aS)-2-fluorotetrahydro-1H-pyrrolo[1,2-a]pyrrol-7a(5H)-yl)methoxy)-18-methyl-23,25,28-trioxa-1,3,5,14,15-pentaazahexacyclo[24.4.1.1~6,10~.0~2,7~.0~11,19~.0~12,16~]dotriaconta-2,4,6,8,10(32),11,13,16,18-nonaen-24-one]	10 nM		22.6 nM		90 nM						
O=C1OCCc2c(F)ccc3cc(O)cc(c23)-c2ncc3c(nc(OC[C@@]45CCCN4C[C@H](F)C5)nc3c2F)N2CCOC[C@H](C2)O1 [Example 361, (16S)-23,32-difluoro-8-(((2R,7aS)-2-fluorotetrahydro-1H-pyrrolo[1,2-a]pyrrol-7a(5H)-yl)methoxy)-28-hydroxy-14,17,19-trioxa-3,7,9,11-tetraazahexacyclo[20.7.1.1~2,6~.1~11,16~.0~5,10~.0~26,30~]dotriaconta-1(30),2(32),3,5,7,9,22,24,26,28-decaen-18-one]	0.4 nM	1 nM		3 nM	7 nM	5 nM					
C[C@@]12COCCN(C1)c1nc(OC[C@@]34CCCN3C[C@H](F)C4)nc3c(F)c(ncc13)-c1c3c(cc4[nH]ncc14)CC[C@H]3CCOC(=O)O2 [Example 365, (16S,22S)-34-fluoro-8-(((2R,7aS)-2-fluorotetrahydro-1H-pyrrolo[1,2-a]pyrrol-7a(5H)-yl)methoxy)-16-methyl-14,17,19-trioxa-3,7,9,11,28,29-hexaazaheptacyclo[20.9.1.1~2,6~.1~11,16~.0~5,10~.0~25,32~.0~27,31~]tetratriaconta-1(31),2(34),3,5,7,9,25(32),26,29-nonaen-18-one]	6.7 nM	1 nM		3 nM	141 nM	11 nM					
O=C1OCC[C@@H]2CCc3cc4[nH]ncc4c(c32)-c2ncc3c(nc(OC[C@@]45CCCN4C[C@H](F)C5)nc3c2F)N2CCOC[C@H](C2)O1 [Example 367, (16S,22S)-34-fluoro-8-(((2R,7aS)-2-fluorotetrahydro-1H-pyrrolo[1,2-a]pyrrol-7a(5H)-yl)methoxy)-14,17,19-trioxa-3,7,9,11,28,29-hexaazaheptacyclo[20.9.1.1~2,6~.1~11,16~.0~5,10~.0~25,32~.0~27,31~]tetratriaconta-1(31),2(34),3,5,7,9,25(32),26,29-nonaen-18-one]	9.2 nM	2 nM		4 nM	139 nM	26 nM					
O=C1CCCCc2c(Cl)cc3[nH]ncc3c2-c2ncc3c(nc(OC[C@@]45CCCN4C[C@H](F)C5)nc3c2F)N2CCC[C@@H](C1)C2 [Example 372]							17 nM	4.4 nM	2 nM	20 nM	3 nM
Cc1cc2[nH]ncc2c2c1CCc1cnc(o1)[C@@H](O)[C@@H]1CCCN(C1)c1nc(OC[C@@]34CCCN3C[C@H](F)C4)nc3c(F)c-2ncc13 [Example 373]							21 nM	7 nM	3 nM	5 nM	7 nM
Fc1c2ncc3c(nc(OC[C@@]45CCCN4C[C@H](F)C5)nc13)N1CCC[C@@H](Cc3nnc(o3)CCc3c(Cl)cc4[nH]ncc4c3-2)C1 [Example 391, (18S)-9-chloro-31-fluoro-25-(((2R,7aS)-2-fluorotetrahydro-1H-pyrrolo[1,2-a]pyrrol-7a(5H)-yl)methoxy)-33-oxa-5,6,14,15,22,24,26,30-octaazaheptacyclo[25.3.1.1~13,16~.1~18,22~.0~2,10~.0~3,7~.0~23,28~]tritriaconta-1(31),2,4,7,9,13,15,23,25,27,29-undecaene]							265 nM	36.3 nM	2 nM	183 nM	4 nM
CN1CCC[C@H]1COc1nc2c3cnc(c(F)c3n1)-c1c(c(Cl)cc3[nH]ncc13)CCc1cnc(o1)[C@@H](O)[C@@H]1CCCN2C1 [Example 394, (17S,18R)-9-chloro-31-fluoro-25-(((2S)-1-methylpyrrolidin-2-yl)methoxy)-33-oxa-5,6,15,22,24,26,30-heptaazaheptacyclo[25.3.1.1~13,16~.1~18,22~.0~2,10~.0~3,7~.0~23,28~]tritriaconta-1(31),2,4,7,9,13,15,23,25,27,29-undecaen-17-ol]							58 nM	3 nM	2 nM	10 nM	5 nM
O[C@]12CCOCCc3c(Cl)cc4[nH]ncc4c3-c3ncc4c(nc(OC[C@@]56CCCN5C[C@H](F)C6)nc4c3F)N3CCC[C@@](C3)(C1)C2 [Example 397, (1S,3R)-10-chloro-32-fluoro-24-(((2R,7aS)-2-fluorotetrahydro-1H-pyrrolo[1,2-a]pyrrol-7a(5H)-yl)methoxy)-6-oxa-13,14,19,23,25,27-hexaazaheptacyclo[25.3.1.1~1,3~.1~18,22~.0~9,17~.0~12,16~.0~21,26~]tritriaconta-9,11,14,16,18(32),19,21,23,25-nonaen-3-ol]							12 nM	1.4 nM	2 nM	3 nM	4 nM
Fc1c2ncc3c(nc(OC[C@@]45CCCN4C[C@H](F)C5)nc13)N1CCCC[C@](F)(COCCCCc3c(Cl)cc4[nH]ncc4c3-2)C1 [Example 398, (26R)-18-chloro-26,32-difluoro-4-(((2R,7aS)-2-fluorotetrahydro-1H-pyrrolo[1,2-a]pyrrol-7a(5H)-yl)methoxy)-24-oxa-1,3,5,9,14,15-hexaazahexacyclo[24.4.1.1~6,10~.0~2,7~.0~11,19~.0~12,16~]dotriaconta-2,4,6,8,10(32),11,13,16,18-nonaene]							35 nM	26.8 nM	2 nM	170 nM	4 nM
Fc1c2ncc3c(nc(OC[C@@]45CCCN4C[C@H](F)C5)nc13)N1CCCC[C@@](F)(COCCCCc3c(Cl)cc4[nH]ncc4c3-2)C1 [Example 399, (26S)-18-chloro-26,32-difluoro-4-(((2R,7aS)-2-fluorotetrahydro-1H-pyrrolo[1,2-a]pyrrol-7a(5H)-yl)methoxy)-24-oxa-1,3,5,9,14,15-hexaazahexacyclo[24.4.1.1~6,10~.0~2,7~.0~11,19~.0~12,16~]dotriaconta-2,4,6,8,10(32),11,13,16,18-nonaene]							44 nM	25.9 nM	2 nM	105 nM	4 nM
